This note sets out measurements from patent US7875598B2, “Compositions useful for the treatment of microbial infections” (The Regents of the University of California, priority 2004, dated 2011).

One assay relates to S. mutans. The experiment in a line: Anti-bacterial activity (MIC) against S. mutans. The format is cell-based, Streptococcus mutans. Particulars: for MIC: Streptococcus mutans.
Another assay has as its system C. albicans. Put plainly: Anti-fungal activity (MIC) against C. albicans. The conditions noted are these: for MIC: Candida albicans. The format is cell-based, Candida albicans. As for the experimental part:
The compositions of the present invention usually have an anti-microbial effect, e.g., anti-G^+ bacteria activity, anti-G^− bacteria activity, anti-fungus activity or effect on bacterial quorum sensing. Methods or assays for testing the anti-microbial activity of a composition are readily available to one skilled in the art. For example, compositions of the present invention can be incubated with a bacterial or fungous culture, and the bacterial or fungous growth can be subsequently examined with a plate reader. Compositions of the present invention can also be examined for their effect on bacterial quorum sensing using either an acyl-homoserine lactone quorum sensing reporter system or a luxS quorum sensing reporter system.
(§1) Bioassays were conducted to further characterize these two compounds.

The subject of assay [1] is Clinical isolated drug-resistant C. albicans. The experiment in a line: Sensitivity of clinical isolated drug-resistant C. albicans. The format is cell-based, Candida albicans. As for the experimental part: as §1
For assay [2], the system named is methicillin resistant Staphylococcus aureus. Put plainly: Sensitivity of methicillin resistant Staphylococcus aureus. The format is cell-based.
In assay [3] the test system is Vancomycin resistant Enterococci. Put plainly: Sensitivity of Vancomycin resistant Enterococci. The format is cell-based.
In another assay the test system is bacteria. Put plainly: Enhancement of activity of other antibiotics (synergistic effect) in the bioassay. The format is cell-based. From the text: Perilla was selected for two types of bioactivity. […] The second is its ability to enhance other antibacterial activities through some kind of synergistic effect. When the crude extract was mixed with antibiotics in the bioassay, it could enhance the activity of other antibiotics at a concentration at least 10 times lower than its MIC.

≈ marks a conversion by molar mass, not a printed value.

For `CC/C=C\C/C=C\C/C=C\CCCCCCCC(=O)O` [Linolenic acid, (9Z,12Z,15Z)-9,12,15-octadecatrienoic acid], in the assay with S. mutans, the MIC turned out to be 10 µg/mL (≈ 35.9 µM).
`CC1OC(OC2C(O)[C@H](OC3OC(C)C(O)C(O)C3O)C(CO)O[C@H]2O[C@H]2CC[C@@]3(C)C(=CCC4C5CC6OC7(CC[C@@H](C)CO7)[C@@H](C)C6[C@@]5(C)CCC43)C2)C(O)C(O)C1O` (stereo partly drawn) [Dioscin, (3β,25R)-spirost-5-en-3-yl O-6-deoxy-α-L-mannopyranosyl-(1→2)-O-[6-deoxy-α-L-mannopyranosyl-(1→4)]-β-D-glucopyranoside]: in the assay with C. albicans, the fungicidal effect result was “fungicidal effect” and the MIC is roughly 4 µg/mL (≈ 4.6 µM). Also, the “sensitivity of clinical isolated drug-resistant C. albicans to treatment” value in assay [1] was “still sensitive”.
On to `C=C(C)[C@H](CC=C(C)C)Cc1c(O)cc(OC)c2c1O[C@H](c1ccc(O)cc1O)CC2=O` [kurarinone, 2-(2,4-dihydroxyphenyl)-2,3-dihydro-7-hydroxy-5-methoxy-8-[5-methyl-2-(1-methylethenyl)-4-hexenyl]-4H-1-benzopyran-4-one], for which, in the assay with S. mutans, the MIC worked out at 4 µg/mL (≈ 9.12 µM). Further, in the assay on S. mutans (organism not given), the bactericidal effect result was “bactericidal effect”. In the assay on S. mutans (pH (4.8-7.4), salt composition (Na, K, Ca), salt concentrations, oxygen levels (anaerobic and aerobic), temperature (120° C.)), the “sensitivity of antimicrobial activity to environmental changes” value was “insensitive”. The “sensitivity of methicillin resistant Staphylococcus aureus to the compound” value in assay [2] is “sensitive”. Moreover, the “sensitivity of Vancomycin resistant Enterococci to the compound” value in assay [3] was “sensitive”.
In the case of `CC1OC(OC2[C@H](O[C@H]3CC[C@@]4(C)C(=CCC5C6CC7OC8(CC[C@@H](C)CO8)[C@@H](C)C7[C@@]6(C)CCC54)C3)OC(CO)[C@@H](O[C@@H]3O[C@@H](CO)[C@@H](O)[C@H]3O)[C@@H]2O)C(O)C(O)C1O` (stereo partly drawn) [Polyphyllin D, (3β,25R)-spirost-5-en-3-yl O-α-L-arabinofuranosyl-(1→4)-O-[6-deoxy-α-L-mannopyranosyl-(1→2)]-β-D-glucopyranoside], in the assay on C. albicans, the fungicidal effect entry is “fungicidal effect” and the MIC is roughly 2 µg/mL (≈ 2.34 µM). Besides, in assay [1], the “sensitivity of clinical isolated drug-resistant C. albicans to treatment” value is listed as “still sensitive”.
In the assay with S. mutans, `C=C(C)C1CC=C(C=O)CC1` (centres unmarked) [perillaldehyde, 4-(1-methylethenyl)-1-cyclohexene-1-carboxaldehyde] gave an MIC of 10000 µg/mL (≈ 66600 µM). For the same molecule, the “ability to enhance activity of other antibiotics” value in the assay with bacteria is listed as “enhance activity of other antibiotics in a dose-dependent manner”.
